Values of other authors in patent US9072754B2, “Process for obtaining non-allergic propolis” (MR. GIUSEPPE MARIA RICCHIUTO, priority 2010, dated 2015).

Conditions: among the compounds of the LB-1 fraction of propolis; literature

- allergenic effect: the most allergenic effect
Structure (SMILES): CC(C)=CCOC(=O)/C=C/c1ccc(O)c(O)c1 [3-methyl-2-butenyl-caffeate, 3-methyl-2-butenyl caffeate]
